Tests used:
[1] = molecular target: 5-hydroxytryptamine receptor 5A (Homo sapiens) (UniProt P47898); conditions: Compound concentration 10.0 uM
[2] = molecular target: Serine/threonine-protein kinase MARK2 (Homo sapiens) (UniProt Q7KZI7); test: PAR-1Balpha(h) Millipore kinase panel; conditions: Compound concentration 1.0 uM
[3] = molecular target: Serine/threonine-protein kinase MRCK alpha (Homo sapiens) (UniProt Q5VT25); test: MRCKalpha(h) Millipore kinase panel; conditions: Compound concentration 1.0 uM
[4] = molecular target: Mitogen-activated protein kinase kinase kinase 10 (Homo sapiens) (UniProt Q02779); test: MLK2(h) Millipore kinase panel; conditions: Compound concentration 1.0 uM
[5] = molecular target: Insulin-like growth factor 1 receptor (Homo sapiens) (UniProt P08069); test: IGF-1R(h), activated Millipore kinase panel; conditions: Compound concentration 1.0 uM
[6] = molecular target: Serine/threonine-protein kinase VRK2 (Homo sapiens) (UniProt Q86Y07); test: VRK2(h) Millipore kinase panel; conditions: Compound concentration 1.0 uM
[7] = molecular target: GABA-A receptor; anion channel; test: GPCRScan assay: inhibition of GABAA/BZP; format: protein-complex assay, Rattus norvegicus; set-up: radioligand conc. used [nm] 0.6 – 4.0, parental cells brain tissue
[8] = molecular target: Rho-associated protein kinase 1 (Homo sapiens) (UniProt Q13464); test: ROCK-I(h) Millipore kinase panel; conditions: Compound concentration 1.0 uM
[9] = molecular target: Tyrosine-protein kinase Tec (Homo sapiens) (UniProt P42680); test: Tec(h) activated Millipore kinase panel; conditions: Compound concentration 1.0 uM
[10] = molecular target: Histamine H3 receptor (Homo sapiens) (UniProt Q9Y5N1); conditions: Compound concentration 10.0 uM
[11] = molecular target: Dual specificity protein kinase CLK4 (Homo sapiens) (UniProt Q9HAZ1); test: CLK4(h) Millipore kinase panel; conditions: Compound concentration 1.0 uM
[12] = molecular target: Serine/threonine-protein kinase Sgk1 (Homo sapiens) (UniProt O00141); test: SGK(h) Millipore kinase panel; conditions: Compound concentration 1.0 uM
[13] = molecular target: MAP kinase-interacting serine/threonine-protein kinase 2 (Homo sapiens) (UniProt Q9HBH9); test: Mnk2(h) Millipore kinase panel; conditions: Compound concentration 1.0 uM
[14] = molecular target: Histamine H3 receptor (Homo sapiens) (UniProt Q9Y5N1); conditions: Compound concentration 10.0 uM; remark: listed apart in the source
[15] = molecular target: High affinity nerve growth factor receptor (Homo sapiens) (UniProt P04629); test: TrkA(h) Millipore kinase panel; conditions: Compound concentration 1.0 uM
[16] = molecular target: Dual specificity tyrosine-phosphorylation-regulated kinase 1A (Homo sapiens) (UniProt Q13627); test: DYRK1A(h) Millipore kinase panel; conditions: Compound concentration 1.0 uM
[17] = molecular target: Activin receptor type-1-like (Homo sapiens) (UniProt P37023); test: ALK1(h) Millipore kinase panel; conditions: Compound concentration 1.0 uM
[18] = molecular target: B1 bradykinin receptor (Homo sapiens) (UniProt P46663); conditions: Compound concentration 10.0 uM
[19] = molecular target: Serine/threonine-protein kinase STK11 (Homo sapiens) (UniProt Q15831); test: LKB1(h) Millipore kinase panel; conditions: Compound concentration 1.0 uM
[20] = molecular target: Testis-specific serine/threonine-protein kinase 3 (Homo sapiens) (UniProt Q96PN8); test: TSSK3(h) Millipore kinase panel; conditions: Compound concentration 1.0 uM
[21] = molecular target: Eukaryotic translation initiation factor 2-alpha kinase 1 (Homo sapiens) (UniProt Q9BQI3); test: HRI(h) Millipore kinase panel; conditions: Compound concentration 1.0 uM
[22] = molecular target: B2 bradykinin receptor (Homo sapiens) (UniProt P30411); conditions: Compound concentration 10.0 uM
[23] = molecular target: Cytoplasmic tyrosine-protein kinase BMX (Homo sapiens) (UniProt P51813); test: Bmx(h) Millipore kinase panel; conditions: Compound concentration 1.0 uM
[24] = molecular target: Serine/threonine-protein kinase Nek9 (Homo sapiens) (UniProt Q8TD19); test: NEK9(h) Millipore kinase panel; conditions: Compound concentration 1.0 uM
[25] = molecular target: Sigma non-opioid intracellular receptor 1 (Homo sapiens) (UniProt Q99720); conditions: Compound concentration 10.0 uM
[26] = molecular target: Mitogen-activated protein kinase kinase kinase 2 (Homo sapiens) (UniProt Q9Y2U5); test: MEKK2(h) Millipore kinase panel; conditions: Compound concentration 1.0 uM
[27] = molecular target: Serine/threonine-protein kinase PLK2 (Homo sapiens) (UniProt Q9NYY3); test: Snk(h) Millipore kinase panel; conditions: Compound concentration 1.0 uM
[28] = molecular target: [Pyruvate dehydrogenase (acetyl-transferring)] kinase isozyme 4, mitochondrial (Homo sapiens) (UniProt Q16654); test: PDHK4(h) Millipore kinase panel; conditions: Compound concentration 1.0 uM
[29] = molecular target: Homeodomain-interacting protein kinase 1 (Homo sapiens) (UniProt Q86Z02); test: HIPK1(h) Millipore kinase panel; conditions: Compound concentration 1.0 uM
[30] = molecular target: Serine/threonine-protein kinase Sgk3 (Homo sapiens) (UniProt Q96BR1); test: SGK3(h) Millipore kinase panel; conditions: Compound concentration 1.0 uM
[31] = molecular target: Cyclin-dependent kinase-like 2 (Homo sapiens) (UniProt Q92772); test: CDKL2(h) Millipore kinase panel; conditions: Compound concentration 1.0 uM
[32] = molecular target: D(1B) dopamine receptor (Homo sapiens) (UniProt P21918); conditions: Compound concentration 10.0 uM
[33] = molecular target: 5-hydroxytryptamine receptor 7 (Homo sapiens, UniProt P34969); test: GPCRScan assay: inhibition of 5-HT7A; set-up: radioligand conc. used [nm] 5.0 – 6.0, parental cells Stable HEK
[34] = molecular target: Androgen receptor (Homo sapiens) (UniProt P10275); conditions: Compound concentration 10.0 uM
[35] = molecular target: Serine/threonine-protein kinase 38-like (Homo sapiens) (UniProt Q9Y2H1); test: NDR2(h) Millipore kinase panel; conditions: Compound concentration 1.0 uM
[36] = molecular target: Serine/threonine-protein kinase TAO2 (Homo sapiens) (UniProt Q9UL54); test: TAO2(h) Millipore kinase panel; conditions: Compound concentration 1.0 uM
[37] = molecular target: GABA-A receptor; anion channel (Rattus norvegicus) (UniProt O09028+P15431+P18506+P18508+P19969+P20236+P23574+P23576+P28471+P28473+P30191+P62813+P63079+P63138+Q91ZM7+Q9ES14); conditions: Compound concentration 10.0 uM
[38] = molecular target: NUAK family SNF1-like kinase 1 (Homo sapiens) (UniProt O60285); test: ARK5(h) Millipore kinase panel; conditions: Compound concentration 1.0 uM
[39] = molecular target: Calcium/calmodulin-dependent protein kinase kinase 1 (Homo sapiens) (UniProt Q8N5S9); test: CaMKK1(h) Millipore kinase panel; conditions: Compound concentration 1.0 uM
[40] = molecular target: Serine/threonine-protein kinase Nek4 (Homo sapiens) (UniProt P51957); test: NEK4(h) Millipore kinase panel; conditions: Compound concentration 1.0 uM
[41] = molecular target: Serine/threonine-protein kinase 17A (Homo sapiens) (UniProt Q9UEE5); test: DRAK1(h) Millipore kinase panel; conditions: Compound concentration 1.0 uM
[42] = molecular target: Adenosine receptor A1 (Homo sapiens) (UniProt P30542); conditions: Compound concentration 10.0 uM
[43] = molecular target: Vascular endothelial growth factor receptor 2 (Homo sapiens) (UniProt P35968); test: KDR(h) Millipore kinase panel; conditions: Compound concentration 1.0 uM
[44] = molecular target: Cyclin-dependent kinase 1/cyclin B (Homo sapiens) (UniProt P06493+P14635+Q8WWL7+O95067); test: CDK1/cyclinB(h) Millipore kinase panel; format: protein-complex assay; conditions: Compound concentration 1.0 uM
[45] = molecular target: Interferon-induced, double-stranded RNA-activated protein kinase (Homo sapiens) (UniProt P19525); test: PKR(h) Millipore kinase panel; conditions: Compound concentration 1.0 uM
D(1A) dopamine receptor = D(1A) dopamine receptor (Homo sapiens, UniProt P21728); conditions: Compound concentration 10.0 uM
[46] = molecular target: Serine/threonine-protein kinase A-Raf (Homo sapiens) (UniProt P10398); test: A_Raf(h) Millipore kinase panel; conditions: Compound concentration 1.0 uM

Chain of 5-hydroxytryptamine receptor 7 (P34969 whole entry): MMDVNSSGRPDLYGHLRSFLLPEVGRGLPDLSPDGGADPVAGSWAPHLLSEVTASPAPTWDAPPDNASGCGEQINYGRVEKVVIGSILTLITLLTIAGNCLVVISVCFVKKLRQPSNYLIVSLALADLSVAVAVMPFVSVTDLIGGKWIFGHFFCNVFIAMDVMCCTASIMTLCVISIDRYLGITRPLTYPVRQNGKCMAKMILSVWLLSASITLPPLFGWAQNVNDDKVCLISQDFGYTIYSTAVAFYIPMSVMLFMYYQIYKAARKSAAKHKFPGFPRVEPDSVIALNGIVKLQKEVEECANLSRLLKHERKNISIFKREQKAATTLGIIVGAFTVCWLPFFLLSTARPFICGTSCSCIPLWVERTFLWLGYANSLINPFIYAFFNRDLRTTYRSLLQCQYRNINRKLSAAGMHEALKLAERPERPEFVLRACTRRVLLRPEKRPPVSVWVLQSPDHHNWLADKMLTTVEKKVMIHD
Chain of Histamine H3 receptor (Homo sapiens) (Q9Y5N1 whole entry): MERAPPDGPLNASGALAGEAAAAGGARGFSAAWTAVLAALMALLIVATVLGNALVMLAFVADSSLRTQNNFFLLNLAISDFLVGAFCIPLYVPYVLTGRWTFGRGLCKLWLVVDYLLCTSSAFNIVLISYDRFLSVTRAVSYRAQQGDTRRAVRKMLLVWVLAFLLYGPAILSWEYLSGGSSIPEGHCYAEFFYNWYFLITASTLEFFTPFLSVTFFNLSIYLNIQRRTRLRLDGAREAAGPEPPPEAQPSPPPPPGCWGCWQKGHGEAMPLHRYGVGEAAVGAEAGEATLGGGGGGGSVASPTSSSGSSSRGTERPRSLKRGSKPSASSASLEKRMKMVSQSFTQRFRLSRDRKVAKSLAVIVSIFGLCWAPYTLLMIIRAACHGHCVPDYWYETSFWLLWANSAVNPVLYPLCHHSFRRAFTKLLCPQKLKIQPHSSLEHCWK
Chain of Homeodomain-interacting protein kinase 1 (Homo sapiens) (Q86Z02 whole entry, looked up): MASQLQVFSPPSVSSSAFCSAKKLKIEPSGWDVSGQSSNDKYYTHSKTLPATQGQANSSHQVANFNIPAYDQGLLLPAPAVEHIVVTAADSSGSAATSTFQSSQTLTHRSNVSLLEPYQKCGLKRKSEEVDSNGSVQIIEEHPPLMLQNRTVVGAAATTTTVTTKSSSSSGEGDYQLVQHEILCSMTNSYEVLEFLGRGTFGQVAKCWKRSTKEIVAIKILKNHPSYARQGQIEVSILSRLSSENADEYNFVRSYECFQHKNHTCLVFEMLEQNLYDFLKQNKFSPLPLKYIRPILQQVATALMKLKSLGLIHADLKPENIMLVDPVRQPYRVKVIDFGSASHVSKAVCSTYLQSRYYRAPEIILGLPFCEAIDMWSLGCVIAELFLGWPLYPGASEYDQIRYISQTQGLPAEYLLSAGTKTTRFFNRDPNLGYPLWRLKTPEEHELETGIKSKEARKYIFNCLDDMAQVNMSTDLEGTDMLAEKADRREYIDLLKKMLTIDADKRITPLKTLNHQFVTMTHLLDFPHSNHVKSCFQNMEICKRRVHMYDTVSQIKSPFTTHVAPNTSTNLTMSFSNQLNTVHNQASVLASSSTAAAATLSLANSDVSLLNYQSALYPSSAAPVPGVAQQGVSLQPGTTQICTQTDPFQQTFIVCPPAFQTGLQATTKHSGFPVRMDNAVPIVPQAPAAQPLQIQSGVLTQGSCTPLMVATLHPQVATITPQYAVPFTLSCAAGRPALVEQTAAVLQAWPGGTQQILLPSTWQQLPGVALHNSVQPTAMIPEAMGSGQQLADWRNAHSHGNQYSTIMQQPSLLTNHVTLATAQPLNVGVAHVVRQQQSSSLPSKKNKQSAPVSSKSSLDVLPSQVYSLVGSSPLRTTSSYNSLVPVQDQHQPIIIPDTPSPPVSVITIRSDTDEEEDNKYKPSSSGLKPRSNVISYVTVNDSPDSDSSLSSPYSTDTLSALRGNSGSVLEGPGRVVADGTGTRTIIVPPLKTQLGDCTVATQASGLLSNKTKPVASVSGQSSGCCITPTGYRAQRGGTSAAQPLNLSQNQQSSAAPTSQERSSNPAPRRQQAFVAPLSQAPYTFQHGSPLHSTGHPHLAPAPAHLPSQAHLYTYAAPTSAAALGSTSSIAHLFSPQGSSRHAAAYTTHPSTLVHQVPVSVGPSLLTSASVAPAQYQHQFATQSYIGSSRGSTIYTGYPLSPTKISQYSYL
Chain of Interferon-induced, double-stranded RNA-activated protein kinase (Homo sapiens) (P19525 whole entry): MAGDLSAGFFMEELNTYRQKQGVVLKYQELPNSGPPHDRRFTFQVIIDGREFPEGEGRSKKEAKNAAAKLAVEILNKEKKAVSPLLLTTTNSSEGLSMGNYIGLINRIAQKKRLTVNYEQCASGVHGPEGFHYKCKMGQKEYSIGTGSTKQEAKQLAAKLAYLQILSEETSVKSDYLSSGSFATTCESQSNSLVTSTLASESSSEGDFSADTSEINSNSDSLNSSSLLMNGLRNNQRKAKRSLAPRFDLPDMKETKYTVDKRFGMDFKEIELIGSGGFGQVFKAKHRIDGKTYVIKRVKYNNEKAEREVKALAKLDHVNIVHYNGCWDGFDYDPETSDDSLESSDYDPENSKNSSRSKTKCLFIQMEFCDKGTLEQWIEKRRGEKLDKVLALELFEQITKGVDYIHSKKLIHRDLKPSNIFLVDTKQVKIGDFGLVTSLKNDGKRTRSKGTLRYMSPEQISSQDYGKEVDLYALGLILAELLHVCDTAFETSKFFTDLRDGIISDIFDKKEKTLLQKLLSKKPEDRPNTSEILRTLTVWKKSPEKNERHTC
Chain of Sigma non-opioid intracellular receptor 1 (Homo sapiens) (Q99720 whole entry): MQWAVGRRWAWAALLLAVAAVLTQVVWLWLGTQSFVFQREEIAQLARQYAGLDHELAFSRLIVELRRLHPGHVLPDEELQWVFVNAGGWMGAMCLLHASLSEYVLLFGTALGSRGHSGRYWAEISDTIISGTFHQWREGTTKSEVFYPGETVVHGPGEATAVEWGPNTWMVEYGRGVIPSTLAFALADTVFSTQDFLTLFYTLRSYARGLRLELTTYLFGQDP
Chain of Eukaryotic translation initiation factor 2-alpha kinase 1 (Homo sapiens) (Q9BQI3 whole entry): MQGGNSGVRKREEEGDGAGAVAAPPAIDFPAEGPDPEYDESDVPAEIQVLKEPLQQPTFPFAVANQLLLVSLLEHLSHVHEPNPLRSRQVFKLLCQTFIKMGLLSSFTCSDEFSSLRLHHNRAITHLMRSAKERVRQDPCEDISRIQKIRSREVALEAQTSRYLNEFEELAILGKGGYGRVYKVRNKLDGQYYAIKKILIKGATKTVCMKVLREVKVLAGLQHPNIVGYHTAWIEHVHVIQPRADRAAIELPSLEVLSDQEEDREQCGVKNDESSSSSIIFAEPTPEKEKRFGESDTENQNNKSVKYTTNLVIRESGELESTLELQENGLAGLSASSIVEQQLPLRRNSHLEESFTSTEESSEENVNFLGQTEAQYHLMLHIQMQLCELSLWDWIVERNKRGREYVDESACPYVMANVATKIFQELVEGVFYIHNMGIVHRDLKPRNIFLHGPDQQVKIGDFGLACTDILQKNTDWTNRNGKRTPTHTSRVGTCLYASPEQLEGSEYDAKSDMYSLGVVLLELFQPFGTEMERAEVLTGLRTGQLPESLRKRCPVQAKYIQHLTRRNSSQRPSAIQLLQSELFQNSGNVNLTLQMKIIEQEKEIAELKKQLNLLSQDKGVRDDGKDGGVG
Chain of Mitogen-activated protein kinase kinase kinase 10 (Homo sapiens) (Q02779 whole entry, looked up): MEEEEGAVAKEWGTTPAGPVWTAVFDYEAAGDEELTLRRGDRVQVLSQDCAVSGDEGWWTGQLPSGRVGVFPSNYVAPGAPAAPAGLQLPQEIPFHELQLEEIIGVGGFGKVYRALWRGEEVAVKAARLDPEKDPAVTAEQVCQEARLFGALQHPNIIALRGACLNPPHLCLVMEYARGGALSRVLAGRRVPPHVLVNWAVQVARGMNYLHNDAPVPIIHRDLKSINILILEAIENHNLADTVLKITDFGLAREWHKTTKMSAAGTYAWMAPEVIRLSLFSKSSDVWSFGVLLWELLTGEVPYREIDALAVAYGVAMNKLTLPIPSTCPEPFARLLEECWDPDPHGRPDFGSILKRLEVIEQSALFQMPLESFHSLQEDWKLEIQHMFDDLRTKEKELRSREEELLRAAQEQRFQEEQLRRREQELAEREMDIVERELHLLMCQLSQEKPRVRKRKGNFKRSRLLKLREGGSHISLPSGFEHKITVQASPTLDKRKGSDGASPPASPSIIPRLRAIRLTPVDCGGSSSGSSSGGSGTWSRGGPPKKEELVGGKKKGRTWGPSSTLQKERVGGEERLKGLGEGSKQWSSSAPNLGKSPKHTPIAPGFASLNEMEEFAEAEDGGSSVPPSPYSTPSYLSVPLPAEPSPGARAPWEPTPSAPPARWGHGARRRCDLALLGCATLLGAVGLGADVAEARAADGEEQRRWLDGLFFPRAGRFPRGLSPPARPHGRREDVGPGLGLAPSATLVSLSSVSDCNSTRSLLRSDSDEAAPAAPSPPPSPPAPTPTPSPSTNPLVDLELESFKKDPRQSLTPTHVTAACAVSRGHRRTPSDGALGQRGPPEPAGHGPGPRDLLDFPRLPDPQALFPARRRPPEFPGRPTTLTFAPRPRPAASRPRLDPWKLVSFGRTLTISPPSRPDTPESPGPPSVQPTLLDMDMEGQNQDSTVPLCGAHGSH
Chain of B1 bradykinin receptor (Homo sapiens) (P46663 whole entry): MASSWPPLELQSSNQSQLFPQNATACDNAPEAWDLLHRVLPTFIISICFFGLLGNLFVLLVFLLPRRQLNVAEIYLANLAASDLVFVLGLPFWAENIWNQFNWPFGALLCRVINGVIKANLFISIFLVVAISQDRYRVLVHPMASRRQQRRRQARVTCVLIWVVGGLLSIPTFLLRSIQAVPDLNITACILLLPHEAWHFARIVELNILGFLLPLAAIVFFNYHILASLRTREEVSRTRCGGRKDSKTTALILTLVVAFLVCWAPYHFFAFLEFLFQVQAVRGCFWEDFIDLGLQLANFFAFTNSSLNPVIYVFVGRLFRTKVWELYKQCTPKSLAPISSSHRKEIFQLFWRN

## CC[C@@H](Nc1c(C#N)c(-c2ccc(-c3cccc(C)c3F)cc2)nc2cnccc12)C(=O)O [BAY-091]
[1]
  inhibition: 14.8%
[2]
  inhibition: 6.75%
[3]
  inhibition: -4.99%
[4]
  inhibition: 18%
[5]
  inhibition: 12%
[6]
  inhibition: 4.1%
[7]
  Ki: 6.83 µM
[8]
  inhibition: -2.77%
[9]
  inhibition: 4.62%
[10]
  inhibition: -3.06%
[11]
  inhibition: 18.8%
[12]
  inhibition: -6.56%
[13]
  inhibition: 3.39%
[14]
  inhibition: 3%
[15]
  inhibition: 5.32%
[16]
  inhibition: 4.22%
[17]
  inhibition: -6.17%
[18]
  inhibition: 0%
[19]
  inhibition: 5.7%
[20]
  inhibition: 8.88%
[21]
  inhibition: -6.26%
[22]
  inhibition: 1%
[23]
  inhibition: 3.69%
[24]
  inhibition: 6.61%
[25]
  inhibition: 35.8%
[26]
  inhibition: 12.8%
[27]
  inhibition: 7.48%
[28]
  inhibition: 9.88%
[29]
  inhibition: 3.6%
[30]
  inhibition: 6.09%
[31]
  inhibition: 19.4%
[32]
  inhibition: 15.8%
[33]
  Ki: > 10 µM
  pKi: < 5
[34]
  inhibition: 14%
[35]
  inhibition: 5.88%
[36]
  inhibition: 10.3%
[37]
  inhibition: 12%
[38]
  inhibition: 4.55%
[39]
  inhibition: 5.03%
[40]
  inhibition: 32.1%
[41]
  inhibition: 9.65%
[42]
  inhibition: 13%
[43]
  inhibition: 50.1%
[44]
  inhibition: 8.82%
[45]
  inhibition: 13.9%
D(1A) dopamine receptor
  inhibition: -3.98%
[46]
  inhibition: 2.41%

— ChEMBL document CHEMBL4800729 (2021)
